Measurements as given in paper PMC6361926, “A chemical approach for global protein knockdown from mice to non-human primates” (Cell Discovery, 2019).

Biological target: Bruton's tyrosine kinase (BTK) (Mus musculus, UniProt P35991)
Experiment: PROTAC degradation of BTK in mouse tissues in vivo, immunoblot
Format: cell-based

Bruton's tyrosine kinase (BTK), sequence (P35991 2-659): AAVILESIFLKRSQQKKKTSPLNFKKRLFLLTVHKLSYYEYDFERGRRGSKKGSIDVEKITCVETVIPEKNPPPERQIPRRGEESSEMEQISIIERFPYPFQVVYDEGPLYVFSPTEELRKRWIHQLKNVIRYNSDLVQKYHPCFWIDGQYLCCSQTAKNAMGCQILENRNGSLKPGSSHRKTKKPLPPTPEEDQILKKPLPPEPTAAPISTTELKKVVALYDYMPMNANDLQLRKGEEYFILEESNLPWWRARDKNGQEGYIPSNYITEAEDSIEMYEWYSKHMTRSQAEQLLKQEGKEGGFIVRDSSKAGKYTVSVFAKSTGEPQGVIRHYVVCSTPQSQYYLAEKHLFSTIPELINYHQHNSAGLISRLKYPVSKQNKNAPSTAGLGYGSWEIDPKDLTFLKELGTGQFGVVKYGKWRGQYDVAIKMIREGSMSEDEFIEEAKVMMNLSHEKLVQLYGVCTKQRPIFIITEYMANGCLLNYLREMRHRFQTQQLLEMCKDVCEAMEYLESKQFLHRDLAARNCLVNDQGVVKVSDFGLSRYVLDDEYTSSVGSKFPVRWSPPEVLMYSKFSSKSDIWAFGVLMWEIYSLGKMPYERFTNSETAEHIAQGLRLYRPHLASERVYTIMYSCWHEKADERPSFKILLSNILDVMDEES

Nc1ncnc2c1c(-c1ccc(Oc3ccccc3)cc1)nn2[C@@H]1CCCN(C(=O)CCCc2cn(CCOCCOCCNc3cccc4c3C(=O)N(C3CCC(=O)NC3=O)C4=O)nn2)C1 (stereo partly shown) [P13IS]
PROTAC degradation of BTK in mouse tissues in vivo, immunoblot: BTK in adipose, thymus, abdominal lymph node, and axillary lymph node was degraded efficiently
